Measurements: patent publication US10314308B2, “Microbiocidal benzoxaboroles” (SYNGENTA PARTICIPATIONS AG, priority 2015, dated 2019)

Assays:
Gaeumannomyces Graminis = assay: Gaeumannomyces graminis / liquid culture (take-all of cereals); type: cell-based; details: PDB potato dextrose broth, 24° C., 4-5 days after application, read-out: disease control (inhibition of growth, photometrically)
Protocol: (§1) 13 Gaeumannomyces Graminis/Liquid Culture (Take-all of Cereals) Mycelial fragments of the fungus from cryogenic storage were directly mixed into nutrient broth (PDB potato dextrose broth). After placing a DMSO solution of test compound into a 96-well microtiter plate, the nutrient broth containing the fungal spores is added. The test plates were incubated at 24° C. and the inhibition of growth was determined photometrically 4-5 days after application.

Fusarium Culmorum = assay: microbe, parasite or virus in culture; type: cell-based; details: read-out: disease control (inhibition of growth, photometrically)
[1] = tested on: Botryotinia Fuckeliana(Botrytis Cinerea); assay: Botryotinia fuckeliana (Botrytis cinerea) / liquid culture (gray mould); type: cell-based; details: Vogels broth, 24° C., 3-4 days after application, read-out: disease control (inhibition of growth, photometrically)
Protocol: as §1, with “9 Botryotinia Fuckeliana(Botrytis Cinerea)/Liquid” for “13 Gaeumannomyces Graminis/Liquid”, “(Gray Mould) Conidia” for “(Take-all of Cereals) Mycelial fragments”, “(Vogels” for “(PDB potato dextrose”, “was” for “is”, “3-4” for “4-5”

[2] = tested on: Puccinia Recondita f. sp. Tritici; assay: Puccinia recondita f. sp. tritici / wheat / leaf disc preventative (brown rust); type: in vivo; details: foliar, wheat leaf segments cv Kanzler, inoculated 1 day after application, assessed 7-9 days after application, read-out: disease control
Protocol: 3 Puccinia Recondita f. sp. Tritici/Wheat/Leaf Disc Preventative (Brown Rust) Wheat leaf segments cultivated variety (cv) Kanzler were placed on agar in 24-well plates and sprayed with formulated test compound diluted in water. The leaf disks were inoculated with a spore suspension of the fungus 1 day after application. The inoculated leaf segments were incubated at 19° C. and 75% relative humidity under a light regime of 12/12 h (light/dark) in a climate cabinet and the activity of a compound was assessed as percent disease control compared to untreated when an appropriate level of disease damage appears in untreated check leaf segments (7-9 days after application).

Sclerotinia Sclerotiorum = assay: Sclerotinia sclerotiorum / liquid culture (cottony rot); type: cell-based; details: PDB potato dextrose broth, 24° C., 3-4 days after application, read-out: disease control (inhibition of growth, visually)
Protocol: 17 Sclerotinia Sclerotiorum/Liquid Culture (Cottony Rot) Mycelia fragments of a newly grown liquid culture of the fungus were directly mixed into nutrient broth (PDB potato dextrose broth). After placing a (DMSO) solution of the test compounds into a microtiter plate (96-well format) the nutrient broth containing the fungal material was added. The test plates were incubated at 24° C. and the inhibition of growth was determined visually 3-4 days after application.

[3] = tested on: Mycosphaerella Graminicola(Septoria Tritici); assay: Mycosphaerella graminicola (Septoria tritici) / liquid culture (Septoria blotch); type: cell-based; details: Zymoseptoria tritici, PDB potato dextrose broth, 24° C., 4-5 days after application, read-out: disease control (inhibition of growth, photometrically)
Protocol: as §1, with “12 Mycosphaerella Graminicola(Septoria Tritici)/Liquid” for “13 Gaeumannomyces Graminis/Liquid”, “(Septoria Blotch) Conidia” for “(Take-all of Cereals) Mycelial fragments”, “was” for “is”

Pythium Ultimum = assay: Pythium ultimum / liquid culture (seedling damping off); type: cell-based; details: Globisporangium ultimum, potato dextrose broth, 24° C., 2-3 days after application, read-out: disease control (inhibition of growth, photometrically)
[4] = tested on: Monographella Nivalis(Microdochium Nivale); assay: Monographella nivalis (Microdochium nivale) / liquid culture (foot rot cereals); type: cell-based; details: PDB potato dextrose broth, 24° C., 4-5 days after application, read-out: disease control (inhibition of growth, photometrically)
Protocol: as §1, with “14 Monographella Nivalis(Microdochium Nivale)/Liquid” for “13 Gaeumannomyces Graminis/Liquid”, “(Foot Rot” for “(Take-all of”, “Conidia” for “Mycelial fragments”, “was” for “is”

Plasmopara Viticola = assay: whole plant or invertebrate; type: in vivo; details: foliar, read-out: disease control
[5] = tested on: Mycosphaerella Arachidis(Cercospora Arachidicola); assay: Mycosphaerella arachidis (Cercospora arachidicola) / liquid culture (early leaf spot); type: cell-based; details: PDB potato dextrose broth, 24° C., 4-5 days after application, read-out: disease control (inhibition of growth, photometrically)
Protocol: as §1, with “11 Mycosphaerella Arachidis(Cercospora Arachidicola)/Liquid” for “13 Gaeumannomyces Graminis/Liquid”, “(Early Leaf Spot) Conidia” for “(Take-all of Cereals) Mycelial fragments”, “was” for “is”

[6] = tested on: Thanatephorus Cucumeris(Rhizoctonia Solani); assay: Thanatephorus cucumeris (Rhizoctonia solani) / liquid culture (foot rot, damping-off); type: cell-based; details: PDB potato dextrose broth, 24° C., 3-4 days after application, read-out: disease control (inhibition of growth, photometrically)
Protocol: 16 Thanatephorus Cucumeris(Rhizoctonia Solani)/Liquid Culture (Foot Rot, Damping-Off) Mycelia fragments of a newly grown liquid culture of the fungus were directly mixed into nutrient broth (PDB potato dextrose broth). After placing a DMSO solution of the test compounds into a 96-well microtiter plate at an application rate of 200 ppm, the nutrient broth containing the fungal material was added. The test plates were incubated at 24° C. and the inhibition of growth was determined photometrically 3-4 days after application.

[7] = tested on: Glomerella Lagenarium(Colletotrichum Ladenarium); assay: Glomerella lagenarium (Colletotrichum lagenarium) / liquid culture (anthracnose); type: cell-based; details: PDB potato dextrose broth, 24° C., 3-4 days after application, read-out: disease control (inhibition of growth, photometrically)
Protocol: as §1, with “10 Glomerella Lagenarium(Colletotrichum Ladenarium)/Liquid” for “13 Gaeumannomyces Graminis/Liquid”, “(Anthracnose) Conidia” for “(Take-all of Cereals) Mycelial fragments”, “was” for “is”, “measured” for “determined”, “3-4” for “4-5”

[8] = tested on: Phaeosphaeria Nodorum (Septoria Nodorum); assay: Phaeosphaeria nodorum (Septoria nodorum) / wheat / leaf disc preventative (glume blotch); type: in vivo; details: Parastagonospora nodorum, foliar, wheat leaf segments cv Kanzler, inoculated 2 days after application, assessed 5-7 days after application, read-out: disease control
Protocol: 5 Phaeosphaeria Nodorum (Septoria Nodorum)/Wheat/Leaf Disc Preventative (Glume Blotch) Wheat leaf segments cv Kanzler were placed on agar in a 24-well plate and sprayed with formulated test compound diluted in water. The leaf disks were inoculated with a spore suspension of the fungus 2 days after application. The inoculated test leaf disks were incubated at 20° C. and 75% relative humidity under a light regime of 12/12 h (light/dark) in a climate cabinet and the activity of a compound was assessed as percent disease control compared to untreated when an appropriate level of disease damage appears in untreated check leaf disks (5-7 days after application).

Row | Compound | inhibition at 20 ppm (Gaeumannomyces Graminis) [%] | inhibition at 20 ppm (Fusarium Culmorum) [%] | inhibition at 20 ppm [1] [%] | pest or weed control at 200 ppm [2] [%] | inhibition at 20 ppm (Sclerotinia Sclerotiorum) [%] | inhibition at 20 ppm [3] [%] | inhibition at 20 ppm (Pythium Ultimum) [%] | inhibition at 20 ppm [4] [%] | pest or weed control at 200 ppm (Plasmopara Viticola) [%] | inhibition at 20 ppm [5] [%] | inhibition at 20 ppm [6] [%] | inhibition at 20 ppm [7] [%] | melting point [°C] | pest or weed control at 200 ppm [8] [%]
1 | OB1OCc2cc(F)c(-c3ccsc3)cc21 [Compound 12, 5-fluoro-1-hydroxy-6-(3-thienyl)-3H-2,1-benzoxaborole] | ≥ 80 | ≥ 80 | ≥ 80 | ≥ 80 | ≥ 80 | ≥ 80 | ≥ 80 | ≥ 80 | ≥ 80 | ≥ 80 | ≥ 80 |  |  | 
2 | Cc1cc(-c2cc3c(cc2Cl)COB3O)c(C#N)o1 [Compound 66] | ≥ 80 |  |  | ≥ 80 |  |  | ≥ 80 |  | ≥ 80 |  |  |  |  | 
3 | OB1OCc2cc(Cl)c(-c3ccco3)cc21 [Compound 2, 5-chloro-6-(2-furyl)-1-hydroxy-3H-2,1-benzoxaborole] |  | ≥ 80 | ≥ 80 |  | ≥ 80 | ≥ 80 | ≥ 80 | ≥ 80 | ≥ 80 | ≥ 80 | ≥ 80 | ≥ 80 | 142 to 147 | ≥ 80
4 | OB1OCc2cc(Cl)c(-c3ncno3)cc21 [Compound 14, 5-(5-chloro-1-hydroxy-3H-2,1-benzoxaborol-6-yl)-1,2,4-oxadiazole] | ≥ 80 | ≥ 80 | ≥ 80 | ≥ 80 | ≥ 80 | ≥ 80 | ≥ 80 | ≥ 80 | ≥ 80 | ≥ 80 | ≥ 80 | ≥ 80 | 175 to 177 | 
5 | Cc1ccc(-c2cc3c(cc2Cl)COB3O)s1 [Compound 38] | ≥ 80 | ≥ 80 | ≥ 80 | ≥ 80 | ≥ 80 | ≥ 80 | ≥ 80 | ≥ 80 | ≥ 80 | ≥ 80 | ≥ 80 | ≥ 80 |  | 
6 | CO/N=C/c1ccc(-c2cc3c(cc2F)COB3O)o1 [Compound 28] |  |  |  | ≥ 80 |  | ≥ 80 | ≥ 80 |  |  |  |  | ≥ 80 | 125 to 140 | 
7 | Cc1nc(C)c(-c2cc3c(cc2Cl)COB3O)s1 [Compound 1] | ≥ 80 | ≥ 80 |  | ≥ 80 |  | ≥ 80 | ≥ 80 | ≥ 80 | ≥ 80 |  |  |  | 155 to 160 | 
